Publication PMC2734971 (Pharmaceutical research, 2009)
Where no end group is shown, it is not given here.

Experiments:
[1] = test system: solid tumors / αVβ3 integrins; conditions: prostate tumors; cited from earlier work
[2] = test system: MDA-MB-231 tumor xenografts; assay: In vivo MR T1-mapping of MDA-MB-231 tumor-bearing SCID mice; set-up: species or system SCID mice (human breast cancer xenograft)
kidney = assay: T1-weighted coronal MR imaging, kidney signal; assay type: in vivo, SCID mice; conditions: up to 24 h; 0.03 mmol-Gd/kg i.v.; 9.4 tesla

Substance | enhancement of tumor accumulation vs copolymers without targeting peptide [1] | T1 at tumor site, targetable vs non-targetable, other time points ([2]; 10 min, 30 min, 1, 6, 24 h, 0.03 mmol-Gd/kg i.v.) | mean T1 value at tumor site, 2 h post-injection ([2]; 2 h after i.v. injection, 0.03 mmol-Gd/kg, 9.4 tesla, 4 mice/group, mean±SD) [ms] | signal enhancement in kidney (kidney)
KACDCRGDCFCG (also: bicyclic or more (positions not given here)) [RGD4C] | four to fivefold enhancement | – | – | –
P-RGDfK-Gd: HPMA copolymer with Gd-DOTA and RGDfK side chains; Mw 43,000; 0.428 mmol/g RGDfK, 0.14 mmol/g Gd | – | no significant difference | 1950 ± 189.8 | signal enhancement in kidney up to 24 h
